Assays:
crabgrass [1] = test: Test A pre-/postemergence greenhouse test; format: in vivo, Digitaria sanguinalis; conditions: for Plant response rating, Crabgrass, Large: 0 to 100 scale where 0 is no effect and 100 is complete control; for Crabgrass, Large plant response rating: 0 to 100 scale
Method in brief: (§1)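 Untreated controls served as the reference for visual injury ratings taken about ten days after spraying. The non-phytotoxic solvent/surfactant formulation was applied preemergence to seeded loam and sand and postemergence to plants two to ten cm high.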

pigweed = test: Test C pre-/postemergence test; format: in vivo, Amaranthus retroflexus
Method in brief: (§2)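 Seeds were planted and treated preemergence with test chemical in a non-phytotoxic solvent mixture containing surfactant. Postemergence applications of the same formulation went onto plants 2 to 18 cm tall (1- to 4-leaf stage). A dash marks no test result.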

wheat = test: Test A pre-/postemergence greenhouse test; format: in vivo, Triticum aestivum; conditions: for Plant response rating, Wheat: 0 to 100 scale where 0 is no effect and 100 is complete control; for Wheat plant response rating: 0 to 100 scale
Method in brief: as §1

johnsongrass = test: Test C pre-/postemergence test; format: in vivo, Sorghum halepense
Method in brief: as §2

umbrella sedge = test: Test C flooded paddy test; format: in vivo, Cyperus difformis; conditions: Flood
Method in brief: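 Visual injury ratings against untreated controls, taken 13 to 15 days after compound was added to paddy water standing 3 cm above the soil.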

morningglory = test: Test C pre-/postemergence test; format: in vivo, Ipomoea coccinea
Method in brief: as §2

Italian ryegrass = test: Test C pre-/postemergence test; format: in vivo, Lolium multiflorum
Method in brief: as §2

crabgrass [2] = test: Test C pre-/postemergence test; format: in vivo, Digitaria sanguinalis
Method in brief: as §2

[3] = system: common (oilseed) sunflower; test: Test C pre-/postemergence test; format: in vivo, Helianthus annuus
Method in brief: as §2

eastern black nightshade = test: Test C pre-/postemergence test; format: in vivo, Solanum ptycanthum
Method in brief: as §2

corn [4] = test: Test C pre-/postemergence test; format: in vivo, Zea mays
Method in brief: as §2

barnyardgrass = test: Test A pre-/postemergence greenhouse test; format: in vivo, Echinochloa crus-galli; conditions: for Plant response rating, Barnyardgrass: 0 to 100 scale where 0 is no effect and 100 is complete control; for Barnyardgrass plant response rating: 0 to 100 scale
Method in brief: as §1

Surinam grass = test: Test C pre-/postemergence test; format: in vivo, Brachiaria decumbens
Method in brief: as §2

velvetleaf = test: Test C pre-/postemergence test; format: in vivo, Abutilon theophrasti
Method in brief: as §2

giant foxtail = test: Test C pre-/postemergence test; format: in vivo, Setaria faberii
Method in brief: as §2

corn [5] = test: Test A pre-/postemergence greenhouse test; format: in vivo, Zea mays; conditions: for Plant response rating, Corn: 0 to 100 scale where 0 is no effect and 100 is complete control; for Corn plant response rating: 0 to 100 scale
Method in brief: as §1

Goosegrass = test: Test C pre-/postemergence test; format: in vivo, Eleusin indica
Method in brief: as §2

[6] = Postemergence, 500 g ai/ha, 0 is no effect, 100 is complete control
[7] = Preemergence, 125 g ai/ha, 0 no effect, 100 complete control
[8] = 62 g ai/ha, Preemergence, scale 0 to 100
[9] = 125 g ai/ha, preemergence, scale 0 (no effect) to 100 (complete control)
[10] = Preemergence, 31 g ai/ha, scale 0 to 100 (0 no effect, 100 complete control)
[11] = preemergence, 250 g ai/ha, scale 0 (no effect) to 100 (complete control)
[12] = 250 g ai/ha, scale 0 to 100, 0 no effect, 100 complete control, 13 to 15 days
[13] = Postemergence, 125 g ai/ha, 0 is no effect, 100 is complete control
[14] = 31 g ai/ha, Preemergence, scale 0 to 100
[15] = 62 g ai/ha, preemergence, scale 0 (no effect) to 100 (complete control)
[16] = preemergence, 125 g ai/ha, scale 0 (no effect) to 100 (complete control)

For `Cc1cc[n+]([O-])c(S(=O)(=O)Cc2c(C(F)(F)F)nn(C)c2OCC(F)F)c1` [Compound 94], the “Plant response rating, Crabgrass, Large” value (crabgrass [1]; Postemergence, 125 g ai/ha) was 70, the “Crabgrass, Large plant response rating” value (crabgrass [1]; [6]) was 90 and the “Crabgrass, Large plant response rating” value (crabgrass [1]; [7]) was 90. For the same molecule, the “Plant response rating, Crabgrass, Large” value (crabgrass [1]; Preemergence, 500 g ai/ha) was 100, the “Pigweed plant response rating” value (pigweed; [8]) was 90 and the “Pigweed plant response rating” value (pigweed; [9]) was 100. For the same molecule, the “Plant response rating, Pigweed” value (pigweed; [10]) was 60, the “Pigweed plant response rating” value (pigweed; [11]) was 100 and the “Plant response rating, Wheat” value (wheat; Postemergence, 125 g ai/ha) was 60. For the same molecule, the “Wheat plant response rating” value (wheat; [6]) was 80, the “Wheat plant response rating” value (wheat; [7]) was 40 and the “Wheat plant response rating” value (wheat; Preemergence, 500 g ai/ha, 0 no effect, 100 complete control) was 90. The “Johnsongrass plant response rating” value (johnsongrass; [8]) was 95, the “Johnsongrass plant response rating” value (johnsongrass; [9]) was 100 and the “Plant response rating, Johnsongrass” value (johnsongrass; [10]) was 85. The “Johnsongrass plant response rating” value (johnsongrass; [11]) was 100, the “Plant response rating, Sedge, Umbrella” value (umbrella sedge; 62 g ai/ha, scale 0 to 100 (0 no effect, 100 complete control)) was 0 and the “Plant response rating, Sedge, Umbrella” value (umbrella sedge; [12]) was 90. For the same molecule, the “Morningglory plant response rating” value (morningglory; [8]) was 90, the “Morningglory plant response rating” value (morningglory; [9]) was 98 and the “Plant response rating, Morningglory” value (morningglory; [10]) was 30. The “Morningglory plant response rating” value (morningglory; [11]) was 100, the “Ryegrass, Italian plant response rating” value (Italian ryegrass; [8]) was 70 and the “Ryegrass, Italian plant response rating” value (Italian ryegrass; [9]) was 90. The “Plant response rating, Ryegrass, Italian” value (Italian ryegrass; [10]) was 0, the “Ryegrass, Italian plant response rating” value (Italian ryegrass; [11]) was 98 and the “Crabgrass, Large plant response rating” value (crabgrass [2]; [8]) was 98. For the same molecule, the “Crabgrass, Large plant response rating” value (crabgrass [2]; [9]) was 100, the “Plant response rating, Crabgrass, Large” value (crabgrass [2]; [10]) was 20 and the “Crabgrass, Large plant response rating” value (crabgrass [2]; [11]) was 100. For the same molecule, the “Sunflower plant response rating” value [3, 8] was 0, the “Sunflower plant response rating” value [3, 9] was 45 and the “Plant response rating, Sunflower” value [3, 10] was 0. For the same molecule, the “Sunflower plant response rating” value [3, 11] was 80, the “Nightshade plant response rating” value (eastern black nightshade; [8]) was 55 and the “Nightshade plant response rating” value (eastern black nightshade; [9]) was 100. The “Plant response rating, Nightshade” value (eastern black nightshade; [10]) was 50, the “Nightshade plant response rating” value (eastern black nightshade; [11]) was 100 and the “Corn plant response rating” value (corn [4]; [8]) was 10. The “Corn plant response rating” value (corn [4]; [9]) was 90, the “Corn plant response rating” value (corn [4]; [11]) was 95 and the “Plant response rating, Barnyardgrass” value (barnyardgrass; Postemergence, 125 g ai/ha) was 60. For the same molecule, the “Barnyardgrass plant response rating” value (barnyardgrass; [6]) was 90, the “Barnyardgrass plant response rating” value (barnyardgrass; [7]) was 70 and the “Plant response rating, Barnyardgrass” value (barnyardgrass; Preemergence, 500 g ai/ha) was 100. For the same molecule, the “Surinam Grass plant response rating” value (Surinam grass; [8]) was 90, the “Surinam Grass plant response rating” value (Surinam grass; [9]) was 90 and the “Plant response rating, Surinam Grass” value (Surinam grass; [10]) was 90. The “Surinam Grass plant response rating” value (Surinam grass; [11]) was 100, the “Velvetleaf plant response rating” value (velvetleaf; [8]) was 40 and the “Velvetleaf plant response rating” value (velvetleaf; [9]) was 100. For the same molecule, the “Plant response rating, Velvetleaf” value (velvetleaf; [10]) was 0, the “Velvetleaf plant response rating” value (velvetleaf; [11]) was 100 and the “Foxtail, Giant plant response rating” value (giant foxtail; [8]) was 95. For the same molecule, the “Foxtail, Giant plant response rating” value (giant foxtail; [9]) was 100, the “Plant response rating, Foxtail, Giant” value (giant foxtail; [10]) was 90 and the “Foxtail, Giant plant response rating” value (giant foxtail; [11]) was 100. For the same molecule, the “Plant response rating, Corn” value (corn [5]; Postemergence, 125 g ai/ha) was 40, the “Corn plant response rating” value (corn [5]; [6]) was 80 and the “Corn plant response rating” value (corn [5]; [7]) was 20. For the same molecule, the “Plant response rating, Corn” value (corn [5]; Preemergence, 500 g ai/ha) was 70, the “Goosegrass plant response rating” value (Goosegrass; [8]) was 100 and the “Goosegrass plant response rating” value (Goosegrass; [9]) was 100. For the same molecule, the “Plant response rating, Goosegrass” value (Goosegrass; [10]) was 95 and the “Goosegrass plant response rating” value (Goosegrass; [11]) was 100.

`Cn1nc(C(F)(F)F)c(C[S+]([O-])c2ccc(Br)c[n+]2[O-])c1OC(F)F` (racemic) [Compound 16] was tested, and the “Crabgrass, Large plant response rating” value (crabgrass [1]; [13]) was 70, the “Crabgrass, Large plant response rating” value (crabgrass [1]; [6]) was 90 and the “Crabgrass, Large plant response rating” value (crabgrass [1]; [7]) was 80. The “Plant response rating, Crabgrass, Large” value (crabgrass [1]; Preemergence, 500 g ai/ha) was 100, the “Pigweed plant response rating” value (pigweed; [14]) was 100 and the “Pigweed plant response rating” value (pigweed; [15]) was 100. For the same molecule, the “Plant response rating (0 to 100), Pigweed” value (pigweed; Preemergence, 250 g ai/ha) was 100, the “Pigweed plant response rating” value (pigweed; [16]) was 100 and the “Wheat plant response rating” value (wheat; [13]) was 60. For the same molecule, the “Wheat plant response rating” value (wheat; [6]) was 70, the “Wheat plant response rating” value (wheat; [7]) was 60 and the “Plant response rating, Wheat” value (wheat; Preemergence, 500 g ai/ha) was 80. The “Johnsongrass plant response rating” value (johnsongrass; [14]) was 100, the “Johnsongrass plant response rating” value (johnsongrass; [15]) was 100 and the “Plant response rating (0 to 100), Johnsongrass” value (johnsongrass; Preemergence, 250 g ai/ha) was 100. For the same molecule, the “Johnsongrass plant response rating” value (johnsongrass; [16]) was 100, the “Plant response rating, Sedge, Umbrella” value (umbrella sedge; 31 g ai/ha, scale 0 to 100 (0 no effect, 100 complete control)) was 0 and the “Plant response rating, Sedge, Umbrella” value (umbrella sedge; 62 g ai/ha, scale 0 to 100, 0 no effect, 100 complete control, 13 to 15 days) was 0. The “Plant response rating, Sedge, Umbrella” value (umbrella sedge; 125 g ai/ha, scale 0 to 100, 0 no effect, 100 complete control, 13 to 15 days) was 0, the “Plant response rating, Sedge, Umbrella” value (umbrella sedge; [12]) was 0 and the “Morningglory plant response rating” value (morningglory; [14]) was 0. The “Morningglory plant response rating” value (morningglory; [15]) was 10, the “Plant response rating (0 to 100), Morningglory” value (morningglory; Preemergence, 250 g ai/ha) was 100 and the “Morningglory plant response rating” value (morningglory; [16]) was 95. The “Ryegrass, Italian plant response rating” value (Italian ryegrass; [14]) was 30, the “Ryegrass, Italian plant response rating” value (Italian ryegrass; [15]) was 50 and the “Plant response rating (0 to 100), Ryegrass, Italian” value (Italian ryegrass; Preemergence, 250 g ai/ha) was 100. For the same molecule, the “Ryegrass, Italian plant response rating” value (Italian ryegrass; [16]) was 55, the “Crabgrass, Large plant response rating” value (crabgrass [2]; [14]) was 80 and the “Crabgrass, Large plant response rating” value (crabgrass [2]; [15]) was 98. For the same molecule, the “Plant response rating (0 to 100), Crabgrass, Large” value (crabgrass [2]; Preemergence, 250 g ai/ha) was 100, the “Crabgrass, Large plant response rating” value (crabgrass [2]; [16]) was 100 and the “Sunflower plant response rating” value [3, 15] was 30. For the same molecule, the “Plant response rating (0 to 100), Sunflower” value ([3]; Preemergence, 250 g ai/ha) was 85, the “Sunflower plant response rating” value [3, 16] was 50 and the “Nightshade plant response rating” value (eastern black nightshade; [14]) was 100. For the same molecule, the “Nightshade plant response rating” value (eastern black nightshade; [15]) was 100, the “Plant response rating (0 to 100), Nightshade” value (eastern black nightshade; Preemergence, 250 g ai/ha) was 100 and the “Nightshade plant response rating” value (eastern black nightshade; [16]) was 100. For the same molecule, the “Corn plant response rating” value (corn [4]; [14]) was 40, the “Corn plant response rating” value (corn [4]; [15]) was 95 and the “Plant response rating (0 to 100), Corn” value (corn [4]; Preemergence, 250 g ai/ha) was 100. The “Corn plant response rating” value (corn [4]; [16]) was 98, the “Barnyardgrass plant response rating” value (barnyardgrass; [13]) was 90 and the “Barnyardgrass plant response rating” value (barnyardgrass; [6]) was 100. The “Barnyardgrass plant response rating” value (barnyardgrass; [7]) was 90, the “Plant response rating, Barnyardgrass” value (barnyardgrass; Preemergence, 500 g ai/ha) was 100 and the “Surinam Grass plant response rating” value (Surinam grass; [15]) was 55. For the same molecule, the “Plant response rating (0 to 100), Surinam Grass” value (Surinam grass; Preemergence, 250 g ai/ha) was 100, the “Surinam Grass plant response rating” value (Surinam grass; [16]) was 100 and the “Velvetleaf plant response rating” value (velvetleaf; [15]) was 100. For the same molecule, the “Plant response rating (0 to 100), Velvetleaf” value (velvetleaf; Preemergence, 250 g ai/ha) was 100, the “Velvetleaf plant response rating” value (velvetleaf; [16]) was 100 and the “Foxtail, Giant plant response rating” value (giant foxtail; [14]) was 80. The “Foxtail, Giant plant response rating” value (giant foxtail; [15]) was 100, the “Plant response rating (0 to 100), Foxtail, Giant” value (giant foxtail; Preemergence, 250 g ai/ha) was 100 and the “Corn plant response rating” value (corn [5]; [13]) was 50. The “Corn plant response rating” value (corn [5]; [6]) was 60, the “Corn plant response rating” value (corn [5]; [7]) was 0 and the “Plant response rating, Corn” value (corn [5]; Preemergence, 500 g ai/ha) was 60. For the same molecule, the “Goosegrass plant response rating” value (Goosegrass; [14]) was 98, the “Goosegrass plant response rating” value (Goosegrass; [15]) was 100 and the “Plant response rating (0 to 100), Goosegrass” value (Goosegrass; Preemergence, 250 g ai/ha) was 100. For the same molecule, the “Goosegrass plant response rating” value (Goosegrass; [16]) was 100.
